Experimental data published in patent US11965039B2, “Compstatin analogues and their medical uses” (priority 2018, dated 2024).
Where two headings read alike, the source gives them in different places. Positions of bridges follow the written chain, without caps; N, C: chain ends. Non-standard residues stand in square brackets, D forms with d. Residues, ends and D or L forms follow the SMILES beside them. Trp(1-Me) = Cn1cc(C[C@H](N)C(=O)O)c2ccccc21; Sar = CNCC(=O)O

Experiments:
[1] = test system: classical complement pathway; test: In vitro haemolysis assay (inhibition of classical complement pathway); format: cell-based, human
Outline: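 Compound dilutions preincubated 15 min at room temperature with diluted human serum (titrated per batch for 70-90% maximal haemolysis), then antibody-sensitized sheep RBC (10^7/well) added for 30 min at 37 °C in Tris/casein buffer, pH 7.4. Stopped with EDTA; haemolysis read at 405 nm; IC50 by 4PL fit.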

[2] = Solubility test at 10 mg/mL (visual inspection and light scattering); format: physicochemical; details: for Solubility, Condition 1: Acetate pH 4; for Solubility, Condition 2: Acetate pH 5; for Solubility, Condition 3: Phosphate pH 6; for Solubility, Condition 4: Phosphate pH 7; for Solubility, Condition 5: Phosphate pH 7.5
Method: The solubility of compounds was assessed by measuring light scattering over a pH interval from pH 4 to pH 7.5.
Compounds were dissolved in a stock solution of 20 mg/mL in H2O at pH 2.5 or pH 10. These stock solutions were diluted 1:1 with 200 mM buffered solution to reach a final solution of 10 mg/mL compound in 100 mM buffer. The 5 investigated conditions were (1) acetate pH 4.0, (2) acetate pH 5.0, (3) phosphate pH 6.0, (4) phosphate pH 7 and (5) phosphate pH 7.5.
Visual inspection included manually checking the 96 well plate for wells that are clear or non-clear. In addition to this a picture of the 96 well plate is taken.
Absorbance was measured at four wavelengths: 280 nm, 325 nm, 340 nm and 360 nm in an UV transparent 96 well microplate in a SpectraMax 190 microplate reader (Molecular Devices).
The criteria for this was a combination of visual inspection and light scattering not exceeding 0.1 AU, where values below 0.1 AU are good in visually clear samples.

[3] = human serum, sensitized sheep red blood cells, Table 3, given as upper bounds, read-out: IC50, inhibition of hemolysis
[4] = human serum, sensitized sheep red blood cells, Table 4, valine 3 vs isoleucine 3 pairs, read-out: CP hemolysis IC50

SMILES: CC[C@H](C)[C@@H]1NC(=O)[C@@H](NC(=O)[C@H](Cc2ccc(O)cc2)NC(C)=O)CSSC[C@@H](C(=O)N[C@H](C(=O)NCC(=O)N[C@@H](C)C(=O)N[C@@H](CCC(=O)O)C(=O)N[C@@H](CO)C(N)=O)[C@@H](C)O)NC(=O)[C@H](CCCNC(=N)N)NC(=O)[C@H](Cc2c[nH]cn2)NC(=O)[C@H](CCC(=O)O)NC(=O)CNC(=O)[C@H](Cc2c[nH]c3ccccc23)NC(=O)[C@H](CC(=O)O)NC(=O)[C@H](CCC(N)=O)NC(=O)[C@H](Cc2cn(C)c3ccccc23)NC1=O [Compound 62] (Ac-YCI[Trp(1-Me)]QDWGEHRCTGAES-NH2; disulfide 2-12)
- IC50 [1, 3]: < 100 nM
- Solubility, Condition 1 [2]: − (“−” denotes lack of solubility at the given condition, as UV absorbance at 340 nm exceeds 0.1 AU and/or it is visibly turbid or contains particles)
- Solubility, Condition 2 [2]: − (“−” denotes lack of solubility at the given condition, as UV absorbance at 340 nm exceeds 0.1 AU and/or it is visibly turbid or contains particles)
- Solubility, Condition 3 [2]: + (“+” denotes solubility at the given condition, as determined by UV absorbance being less than 0.1 AU at 340 nm and the sample being clear when manually inspected)
- Solubility, Condition 4 [2]: + (“+” denotes solubility at the given condition, as determined by UV absorbance being less than 0.1 AU at 340 nm and the sample being clear when manually inspected)
- Solubility, Condition 5 [2]: + (“+” denotes solubility at the given condition, as determined by UV absorbance being less than 0.1 AU at 340 nm and the sample being clear when manually inspected)

SMILES: CC[C@H](C)[C@H](NC(=O)[C@H](C)NC(=O)[C@H](CO)NC(=O)[C@H](CO)NC(=O)[C@H](CCC(=O)O)NC(C)=O)C(=O)N[C@H]1CSSC[C@@H](C(=O)N[C@H](C(N)=O)[C@@H](C)O)NC(=O)[C@H](CCCNC(=N)N)NC(=O)[C@H](Cc2c[nH]cn2)NC(=O)[C@H](CCC(=O)O)NC(=O)CNC(=O)[C@H](Cc2c[nH]c3ccccc23)NC(=O)[C@H](CC(=O)O)NC(=O)[C@H](CCC(N)=O)NC(=O)[C@H](Cc2c[nH]c3ccccc23)NC(=O)[C@H]([C@@H](C)CC)NC1=O [Compound 3] (Ac-ESSAICIWQDWGEHRCT-NH2; disulfide 6-16)
- IC50 [1, 3]: < 100 nM
- IC50 [1, 4]: 69 nM
- Solubility, Condition 1 [2]: + (“+” denotes solubility at the given condition, as determined by UV absorbance being less than 0.1 AU at 340 nm and the sample being clear when manually inspected)
- Solubility, Condition 2 [2]: − (“−” denotes lack of solubility at the given condition, as UV absorbance at 340 nm exceeds 0.1 AU and/or it is visibly turbid or contains particles)
- Solubility, Condition 3 [2]: − (“−” denotes lack of solubility at the given condition, as UV absorbance at 340 nm exceeds 0.1 AU and/or it is visibly turbid or contains particles)
- Solubility, Condition 4 [2]: + (“+” denotes solubility at the given condition, as determined by UV absorbance being less than 0.1 AU at 340 nm and the sample being clear when manually inspected)
- Solubility, Condition 5 [2]: + (“+” denotes solubility at the given condition, as determined by UV absorbance being less than 0.1 AU at 340 nm and the sample being clear when manually inspected)

SMILES: CC[C@H](C)[C@H](NC(C)=O)C(=O)N[C@H]1CSSC[C@@H](C(=O)N[C@H](C(=O)NCC(=O)N[C@@H](C)C(=O)N[C@@H](CCC(=O)O)C(=O)N[C@@H](CO)C(N)=O)[C@@H](C)O)NC(=O)[C@H](CCCNC(=N)N)NC(=O)[C@H](Cc2c[nH]cn2)NC(=O)[C@H](CCC(=O)O)NC(=O)CNC(=O)[C@H](Cc2c[nH]c3ccccc23)NC(=O)[C@H](CC(=O)O)NC(=O)[C@H](CCC(N)=O)NC(=O)[C@H](Cc2cn(C)c3ccccc23)NC(=O)[C@H]([C@@H](C)CC)NC1=O [Compound 51] (Ac-ICI[Trp(1-Me)]QDWGEHRCTGAES-NH2; disulfide 2-12)
- IC50 [1, 3]: < 100 nM
- Solubility, Condition 1 [2]: − (“−” denotes lack of solubility at the given condition, as UV absorbance at 340 nm exceeds 0.1 AU and/or it is visibly turbid or contains particles)
- Solubility, Condition 2 [2]: − (“−” denotes lack of solubility at the given condition, as UV absorbance at 340 nm exceeds 0.1 AU and/or it is visibly turbid or contains particles)
- Solubility, Condition 3 [2]: + (“+” denotes solubility at the given condition, as determined by UV absorbance being less than 0.1 AU at 340 nm and the sample being clear when manually inspected)
- Solubility, Condition 4 [2]: + (“+” denotes solubility at the given condition, as determined by UV absorbance being less than 0.1 AU at 340 nm and the sample being clear when manually inspected)
- Solubility, Condition 5 [2]: + (“+” denotes solubility at the given condition, as determined by UV absorbance being less than 0.1 AU at 340 nm and the sample being clear when manually inspected)

SMILES: CC[C@H](C)[C@H](NC(C)=O)C(=O)N[C@H]1CSSC[C@@H](C(=O)N[C@H](C(N)=O)[C@@H](C)O)NC(=O)[C@H](CCCNC(=N)N)NC(=O)[C@H](Cc2c[nH]cn2)NC(=O)[C@H](CCC(=O)O)NC(=O)CNC(=O)[C@H](Cc2c[nH]c3ccccc23)NC(=O)[C@H](CC(=O)O)NC(=O)[C@H](CCC(N)=O)NC(=O)[C@H](Cc2c[nH]c3ccccc23)NC(=O)[C@H](C(C)C)NC1=O [A, reference compound] (Ac-ICVWQDWGEHRCT-NH2; disulfide 2-12)
- IC50 ([1]; Table 5, different residues at position 3 of Ac-IC(1)XWQDWGEHRC(1)T-NH2, read-out: IC50, CP hemolysis): 350 nM
- IC50 [1, 4]: 350 nM

SMILES: CC[C@H](C)[C@H](NC(C)=O)C(=O)N[C@H]1CSSC[C@@H](C(=O)N[C@H](C(=O)N[C@@H](CCC(=O)O)C(N)=O)[C@@H](C)O)NC(=O)[C@H](CCCNC(=N)N)NC(=O)[C@H](Cc2c[nH]cn2)NC(=O)[C@H](CCC(=O)O)NC(=O)CNC(=O)[C@H](Cc2c[nH]c3ccccc23)NC(=O)[C@H](CC(=O)O)NC(=O)[C@H](CCC(N)=O)NC(=O)[C@H](Cc2c[nH]c3ccccc23)NC(=O)[C@H]([C@@H](C)CC)NC1=O [Compound 26] (Ac-ICIWQDWGEHRCTE-NH2; disulfide 2-12)
- IC50 [1, 3]: < 100 nM

SMILES: CC[C@H](C)[C@@H]1NC(=O)[C@@H](NC(=O)[C@H](Cc2ccccc2)NC(=O)[C@H](CCC(=O)O)NC(=O)[C@H](CO)NC(C)=O)CSSC[C@@H](C(=O)N(C)CC(=O)N[C@@H](CCC(=O)O)C(=O)N[C@@H](C)C(N)=O)NC(=O)[C@H](CCCNC(=N)N)NC(=O)[C@H](Cc2c[nH]cn2)NC(=O)[C@H](CCC(=O)O)NC(=O)CNC(=O)[C@H](Cc2c[nH]c3ccccc23)NC(=O)[C@H](CCC(=O)O)NC(=O)[C@H](CCC(N)=O)NC(=O)[C@H](Cc2cn(C)c3ccccc23)NC1=O [Compound 83] (Ac-SEFCI[Trp(1-Me)]QEWGEHRC[Sar]EA-NH2; disulfide 4-14)
- IC50 [1, 3]: < 100 nM

SMILES: CC[C@H](C)[C@@H]1NC(=O)[C@@H](NC(=O)[C@H](Cc2ccccc2)NC(=O)[C@H](CCC(=O)O)NC(=O)[C@H](CO)NC(C)=O)CSSC[C@@H](C(=O)N(C)CC(=O)N[C@@H](CCC(=O)O)C(=O)N[C@@H](C)C(N)=O)NC(=O)[C@H](CCCCN)NC(=O)[C@H](Cc2c[nH]cn2)NC(=O)[C@H](CCC(=O)O)NC(=O)CNC(=O)[C@H](Cc2c[nH]c3ccccc23)NC(=O)[C@H](CC(=O)O)NC(=O)[C@H](CCC(N)=O)NC(=O)[C@H](Cc2cn(C)c3ccccc23)NC1=O [Compound 86] (Ac-SEFCI[Trp(1-Me)]QDWGEHKC[Sar]EA-NH2; disulfide 4-14)
- IC50 [1, 3]: < 100 nM

SMILES: CC[C@H](C)[C@H](NC(=O)[C@H](C)NC(=O)[C@H](CO)NC(C)=O)C(=O)N[C@H]1CSSC[C@@H](C(=O)N[C@H](C(=O)N[C@@H](CCC(=O)O)C(=O)NCC(N)=O)[C@@H](C)O)NC(=O)[C@H](CCCNC(=N)N)NC(=O)[C@H](Cc2c[nH]cn2)NC(=O)[C@H](CCC(=O)O)NC(=O)CNC(=O)[C@H](Cc2c[nH]c3ccccc23)NC(=O)[C@H](CC(=O)O)NC(=O)[C@H](CCC(N)=O)NC(=O)[C@H](Cc2c[nH]c3ccccc23)NC(=O)[C@H]([C@@H](C)CC)NC1=O [Compound 42] (Ac-SAICIWQDWGEHRCTEG-NH2; disulfide 4-14)
- IC50 [1, 3]: < 250 nM
